Consider eleven molecules from ChEMBL document CHEMBL4017473, “Discovery of LRRK2 inhibitors by using an ensemble of virtual screening methods” (Bioorg Med Chem Lett, 2017).

pIC50, pKi: −log10 of the molar value.

In general, pIC50 refers to the IC50 on a negative log10 scale, so that one unit is a factor of ten. A lower pIC50 goes with a high IC50. For orientation: pKi means the Ki on a negative log10 scale, so that one unit is a factor of ten. The low end stands for a large Ki, the high end for a small Ki.

The target in experiment [1] is Leucine-rich repeat serine/threonine-protein kinase 2 (Homo sapiens, UniProt Q5S007). In words: Inhibition of full length wild-type LRRK2 (unknown origin) using biotinylated ezrin/radaxin/meosin peptide as substrate measured after 1 hr.
Experiment [2] has as its target Leucine-rich repeat serine/threonine-protein kinase 2 (Homo sapiens, UniProt Q5S007, G2019S). The experiment can be described thus: Inhibition of LRRK2 G2019S mutant (unknown origin) using biotinylated ezrin/radaxin/meosin peptide as substrate measured after 1 hr.

Leucine-rich repeat serine/threonine-protein kinase 2 (Homo sapiens, UniProt Q5S007, G2019S), sequence (Q5S007 whole entry G2019S): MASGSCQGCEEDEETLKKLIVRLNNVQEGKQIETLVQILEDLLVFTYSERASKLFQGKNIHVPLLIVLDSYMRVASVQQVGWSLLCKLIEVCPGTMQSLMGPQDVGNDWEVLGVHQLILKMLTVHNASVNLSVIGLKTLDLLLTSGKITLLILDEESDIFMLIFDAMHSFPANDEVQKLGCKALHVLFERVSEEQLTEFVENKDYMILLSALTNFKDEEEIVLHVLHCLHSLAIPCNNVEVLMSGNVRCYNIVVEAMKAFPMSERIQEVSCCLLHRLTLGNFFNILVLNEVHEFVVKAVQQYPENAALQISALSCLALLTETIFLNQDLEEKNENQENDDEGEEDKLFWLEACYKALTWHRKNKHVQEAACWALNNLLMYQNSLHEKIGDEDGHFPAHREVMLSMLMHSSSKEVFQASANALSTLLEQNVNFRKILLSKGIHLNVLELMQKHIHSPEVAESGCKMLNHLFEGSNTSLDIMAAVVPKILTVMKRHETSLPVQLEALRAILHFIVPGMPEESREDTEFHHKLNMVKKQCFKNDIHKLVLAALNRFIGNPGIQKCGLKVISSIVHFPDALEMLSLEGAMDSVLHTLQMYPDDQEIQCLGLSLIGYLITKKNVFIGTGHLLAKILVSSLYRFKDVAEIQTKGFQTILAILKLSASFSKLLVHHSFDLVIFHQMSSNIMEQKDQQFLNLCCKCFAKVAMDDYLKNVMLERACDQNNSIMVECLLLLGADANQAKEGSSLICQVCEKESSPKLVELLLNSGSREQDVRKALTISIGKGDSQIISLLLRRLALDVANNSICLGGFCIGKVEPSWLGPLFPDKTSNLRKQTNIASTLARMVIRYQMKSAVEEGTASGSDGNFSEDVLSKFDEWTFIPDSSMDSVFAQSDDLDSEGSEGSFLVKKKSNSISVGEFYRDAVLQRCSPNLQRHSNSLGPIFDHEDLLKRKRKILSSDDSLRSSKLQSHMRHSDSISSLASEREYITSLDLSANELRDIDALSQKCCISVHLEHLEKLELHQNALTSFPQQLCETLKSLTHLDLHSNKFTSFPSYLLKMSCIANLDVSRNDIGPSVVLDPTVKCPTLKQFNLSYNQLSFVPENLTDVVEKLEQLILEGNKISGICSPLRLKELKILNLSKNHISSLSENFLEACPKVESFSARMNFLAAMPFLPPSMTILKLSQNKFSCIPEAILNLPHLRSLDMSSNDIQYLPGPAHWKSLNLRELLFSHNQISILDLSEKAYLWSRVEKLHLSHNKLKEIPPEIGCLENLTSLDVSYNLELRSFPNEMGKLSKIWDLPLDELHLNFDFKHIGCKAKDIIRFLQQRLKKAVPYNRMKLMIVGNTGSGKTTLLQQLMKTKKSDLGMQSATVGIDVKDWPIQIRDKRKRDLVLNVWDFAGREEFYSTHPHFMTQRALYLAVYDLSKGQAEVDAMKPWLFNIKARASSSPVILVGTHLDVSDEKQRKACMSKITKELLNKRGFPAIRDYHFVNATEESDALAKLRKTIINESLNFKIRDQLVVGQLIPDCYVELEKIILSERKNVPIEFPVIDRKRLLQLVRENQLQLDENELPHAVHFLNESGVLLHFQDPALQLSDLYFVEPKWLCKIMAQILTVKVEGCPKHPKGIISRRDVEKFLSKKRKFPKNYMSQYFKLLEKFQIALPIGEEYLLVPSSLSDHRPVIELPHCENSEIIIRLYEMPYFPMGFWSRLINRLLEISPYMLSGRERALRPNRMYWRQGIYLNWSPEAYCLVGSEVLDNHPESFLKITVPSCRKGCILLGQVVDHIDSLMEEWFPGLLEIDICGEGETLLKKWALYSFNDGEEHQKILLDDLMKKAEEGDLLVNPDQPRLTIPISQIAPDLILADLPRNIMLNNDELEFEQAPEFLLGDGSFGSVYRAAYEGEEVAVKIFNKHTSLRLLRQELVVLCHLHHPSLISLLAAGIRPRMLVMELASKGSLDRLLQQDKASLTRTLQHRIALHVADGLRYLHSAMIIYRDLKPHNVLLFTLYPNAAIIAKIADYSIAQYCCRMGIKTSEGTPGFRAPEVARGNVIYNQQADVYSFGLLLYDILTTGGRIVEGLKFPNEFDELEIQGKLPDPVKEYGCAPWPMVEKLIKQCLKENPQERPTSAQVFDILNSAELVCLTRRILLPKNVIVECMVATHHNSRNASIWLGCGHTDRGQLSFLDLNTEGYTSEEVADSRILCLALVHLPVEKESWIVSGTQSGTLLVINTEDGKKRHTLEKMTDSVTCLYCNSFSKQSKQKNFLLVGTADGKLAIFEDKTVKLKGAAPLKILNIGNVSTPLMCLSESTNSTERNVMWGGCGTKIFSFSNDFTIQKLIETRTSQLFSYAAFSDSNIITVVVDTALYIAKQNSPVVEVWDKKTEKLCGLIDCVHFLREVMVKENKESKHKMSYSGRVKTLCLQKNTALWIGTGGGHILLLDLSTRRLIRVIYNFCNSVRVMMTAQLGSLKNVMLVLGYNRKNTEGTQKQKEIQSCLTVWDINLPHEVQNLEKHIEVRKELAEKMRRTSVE
Leucine-rich repeat serine/threonine-protein kinase 2 (Homo sapiens, UniProt Q5S007), sequence (Q5S007 whole entry): as the sequence (Q5S007 whole entry G2019S) above, with S2019G counted along it

In experiment [1], `Cc1ccccc1Nc1nc2ccc(-c3cc(C)c(O)c(C)c3)cn2n1` had a negative-log IC50 (pIC50) of 8.00.

Turning to `C[C@@H](Nc1c(C(N)=O)nnc2cc(-c3ccncc3)ccc12)C1CC1`, the pIC50 in experiment [1] is ≥ 8.22.

Take `COc1cc(N2CCOCC2)ccc1Nc1ncc(F)c(Nc2ccccc2NS(C)(=O)=O)n1`: the negative-log IC50 (pIC50) in experiment [1] is 8.89; in experiment [2], 8.72.

In experiment [1], `c1cc(-c2n[nH]c3ccnc(OC4CCOCC4)c23)cc(N2CCCC2)n1` showed a negative logarithm of the IC50 (pIC50) of 8.52.

Take `NC(=O)c1ccc(Nc2nc(N3CCOCC3)c3ccccc3n2)cc1`: the results for the pIC50 in experiment [1] and in experiment [2] were 6.08 and 6.20, respectively.

For the molecule `Clc1c[nH]c2ncc(-c3cncc(N4CCOCC4)n3)cc12`, the pIC50 in experiment [2] is ≥ 6.30.

On to `CCn1c(NC(=O)c2ccnc(-n3ccnc3)c2)nc2ccccc21`, for which the pIC50 in experiment [1] is 6.46; in experiment [2], 6.56.

As for `CN(C)S(=O)(=O)c1ccc(C(=O)Nc2nc3ccccc3n2-c2ccccc2)o1`, the negative logarithm of the IC50 (pIC50) in experiment [1] and in experiment [2] was < 5.00 throughout.

Turning to `COc1cccc(Nc2nc(NCCO)c3nc[nH]c3n2)c1`, the negative logarithm of the IC50 (pIC50) in experiment [1] is 7.08; in experiment [2], 7.32.

For the molecule `CCOc1ccc(Nc2nc(N3CCOCC3)c3nc[nH]c3n2)cc1`, the negative logarithm of the IC50 (pIC50) in experiment [1] and in experiment [2] was 6.45 throughout.

The molecule `O=c1[nH]ccc2nc(N3CCC(O)CC3)nc(Nc3cccc(C(F)(F)F)c3)c12` showed a negative logarithm of the Ki (pKi) in experiment [1] of 7.27.
